Results as given in patent US20090214426A1, “Assay Method” (priority 2004, published 2009).
Entries after “also recorded” stand apart in the source; their conditions may differ.

Tests used:
[1] = test system: CCI rats; experiment: Beam walking test in CCI rats; assay type: in vivo, rat; conditions: for efficacy on reversing beam walking impairments: summary statement, dose not stated
Protocol: (§1) The CCI of sciatic nerve is performed as previously described by Bennett and Xie (1988). Animals are anaesthetized with a 2% isofluorane/O2 mixture maintained during surgery via a nose cone and the common sciatic nerve is exposed at the middle of the right thigh by blunt dissection through biceps femoris. Proximal to the sciatic trifurcation, about 7 mm of nerve is freed of adhering tissue and 4 ligatures (4-0 silk) are tied loosely around it with about 1 mm spacing. Ligatures are tied such that the circulation through the superficial epineural vasculature is retarded but not arrested. The incision is then closed in layers and the wound treated with topical antibiotics. In the sham-operated group an identical dissection is performed on the ipsilateral paw except the sciatic nerve is not ligated.
The Beam walking apparatus consists of a 1.5 m long beam with a 2.5×2.5 cm square cross section, elevated 75 cm above the floor. The test is performed in dim light conditions (18 lux). A light source (520 lux) is placed at the start-end of the beam while a dark box at the other side (Goldstein & Davis, 1990, J Neurosci Methods; 31:101-107). Rats are trained over a period of 2 days to cross the beam. On the day of the test an additional training section is performed before the proper test trial was performed. […] Rats that cross the beam without using the ipsilateral paw are given a maximal number of foot slips.
Starting from 3 weeks post surgery, CCI rats are selected based on their performances. Only those showing a number of foot slips of 2 or above are selected and used for the pharmacological validation of the test. A group of naïve CD rats are treated with vehicle and used as positive controls. […]

[2] = test system: CCI rats; experiment: Open field test in CCI rats; assay type: in vivo, rat; conditions: for reversal of pain-related anxiety-like behaviour of CCI rats: summary statement, dose not stated
Protocol: as §1
(§2) The spontaneous locomotor activity of rats in an open field is monitored for 30 minutes in a 70×70 cm dark arena (Prut ans Beizung, 2003, Eur J Pharmacol. 463:3-33). Each animal was placed in the centre of the arena and a video camera recorded movement of the animal. Four rats are recorded simultaneously in four different cages. Data are collected and analysed by Ethovision 3.0 software (Noldus IT, Netherdland) and the exploratory behaviour is expressed as number of entries in the central area of the arena (23×23 cm).
To measure the anxiety-like behaviour in CCI rats the open field test is carried out in normal light conditions (100 Lux).
For a pharmacological validation of the model, CCI rats with a poor exploratory activity (entries≦6) are pre selected in the open field and a week later treated with diazepam (1 and 3 mg/kg, i.p.), tramadol (30 mpk, p.o.) or gabapentin (30-100 mg/kg, p.o.). Naïve CD vehicle-treated rats are used as positive control.

[3] = test system: CCI rats; experiment: Rota rod test in CCI rats; assay type: in vivo, rat; conditions: analgesic doses; selected rats with mean performance <80 seconds; data not shown
Protocol: as §1
The rota rod test consists of 4 rotatable drums divided by flanges with a motor-driven drum which is capable of acceleration (Ugo Basile, Comerio, VA, Italy). For a given trial, a rat is placed on the rotating rod and the rotation speed is accelerated from 4 to 16 revolutions per minute (rpm) in 2 minutes. The time of maximal performance is set at 120 seconds (Voikar V et al, 2001, Physiol Behav., 2001; 72:271-81). […]

[4] = test system: fibromyalgia patients; conditions: randomised controlled clinical trials (Mease 2003); cited from earlier work
[5] = test system: CCI rats; experiment: Object recognition test in CCI rats; assay type: in vivo, rat; conditions: tramadol 100 mg/kg po, 3.5 hours post familiarization, tested 30 minutes later
Protocol: as §1
The Object Recognition test was performed as described by Ennaceur and Delacour (1988). The apparatus consisted of a black circular arena 55 cm in diameter with 50 cm black walls. […]
Each animal was trained prior to testing; this involved handling and habituation of the rat to the arena for 5 minutes per session, twice a day for three consecutive days. […] The distance moved in the arena and the time spent exploring each object during familiarization and sample phases were recorded manually and automatically, respectively by the videotracking system (Noldus Ethovision 3.0, Netherland). […]

[6] = test system: patients with diabetic neuropathy and post herpetic neuralgia; conditions: randomised controlled clinical trials (Backonja 1998; Rowbotham 1998); cited from earlier work
[7] = test system: CD naïve rat; experiment: Open field test in naïve rats (anxiogenic validation); assay type: in vivo
Protocol: as §2
To measure the anxiety-like behaviour in CCI rats the open field test is carried out in normal light conditions (100 Lux). […] To confirm that the environmental conditions we set up, could let us measure an anxiety-like behaviour, the activity of the anxiogenic compound mCPP was tested in CD naïve rat.

In the case of `CN(C)CCC=C1c2ccccc2CCc2ccccc21` [Amitriptyline], the “neuropathic rats performance in the beam walking task” value ([1]; amitriptyline 2 mg/kg (FIG. 2C)) is reported as “did not improve”, the “neuropathic rats performance in the beam walking task” value ([1]; amitriptyline 20 mg/kg (data not shown)) is reported as “did not improve” and the “efficacy on reversing beam walking impairments” value (“efficacy” below) [1] is reported as “does not”.
In the case of `CN1C(=O)CN=C(c2ccccc2)c2cc(Cl)ccc21` [Diazepam], the “pain-related anxiety-like behaviour of CCI rats (entries in centre)” value ([2]; diazepam 1 mg/kg IP, 30 minutes before the test (FIG. 5A)) is reported as “did not”, the “pain-related anxiety-like behaviour of CCI rats (entries in centre)” value ([2]; diazepam 3 mg/kg (higher dose, data not shown)) is reported as “did not” and the “reversal of pain-related anxiety-like behaviour of CCI rats” value (“reversal” below) [2] is reported as “does not reverse”.
For `CN1CC[C@]23c4c5ccc(O)c4O[C@H]2[C@@H](O)C=C[C@H]3[C@H]1C5` [Morphine], the “rota rod performance of neuropathic rats” value [3] was “did not improve; also recorded: did not showed improvement”, the “rats performance in the beam walking test” value ([1]; morphine 1 mg/kg s.c. (lower dose)) was “not statistically different from the control value” and the “number of foot slips” value ([1]; morphine 3 mg/kg s.c. (higher dose), 30 minutes post dosing, vs 6±1 baseline, p<0.05) was 3±1. For the same molecule, the “number of foot slips” value ([1]; morphine 3 mg/kg s.c. (higher dose), 1 hour post dosing, vs 5±1 baseline, p<0.05) was 2±1 and the “efficacy” value [1] was “show efficacy”.
For `CC(C)C[C@H](CN)CC(=O)O` [Pregabalin], the “QoL deficit of fibromyalgia patients” value [4] is given as “showed efficacy”.
With `COc1cccc(C2(O)CCCCC2CN(C)C)c1` (stereo not shown) [Tramadol] the “rota rod performance of neuropathic rats” value [3] was “did not improve; also recorded: did not showed improvement”, the “cognitive dysfunction (memory/attention deficit) of neuropathic rats” value [5] was “reversed” and the “discrimination index compared to vehicle-treated CCI rats” value ([5]; P<0.01) was “significant increase”. For the same molecule, the “efficacy” value [1] was “show efficacy”, the “performance of rats in the beam walking test” value ([1]; tramadol 30 mg/kg p.o.) was “not significantly different from CCI controls” and the “number of foot slips” value ([1]; tramadol 100 mg/kg p.o. (higher dose), 1 hour post drug administration, vs 6±1 CCI vehicle-treated group, p<0.01) was 1±1. The “ability of CCI rats to cross the beam” value ([1]; tramadol 30-100 mg/kg p.o.) was “dose dependently improves”, the “reversal” value [2] was “does not reverse” and the “pain-related anxiety-like behaviour of CCI rats (entries in centre)” value ([2]; tramadol 30 mg/kg PO, 30 minutes before the test (FIG. 5A)) was “did not”. The “pain-related anxiety-like behaviour of CCI rats (entries in centre)” value ([2]; tramadol 100 mg/kg (higher dose, data not shown)) was “did not”.
In the case of `NCC1(CC(=O)O)CCCCC1` [gabapentin], the QoL of patients [6] is listed as “demonstrated an improvement”, the “number of entries in the centre of the open field compared to CCI vehicle-treated group” value ([2]; gabapentin 30 mg/kg p.o.) is listed as “increased” and the “anxiety-like behaviour of injured rats” value ([2]; gabapentin 100 mg/kg p.o.) is listed as “completely reversed”. For the same molecule, the “number of entries in the centre of the open field” value ([2]; gabapentin 100 mg/kg p.o., 1 hour before the test, vs 14±2 naïve vehicle-treated group, NS) was 12±2, the “exploratory activity of neuropathic rats” value ([2]; gabapentin 30-100 mg/kg p.o.) was “improved” and the “reversal” value [2] was “does”.
In the case of `Clc1cccc(N2CCNCC2)c1` [mCPP], the “exploratory activity (number of entries)” value ([7]; mCPP 1-3 mg/kg i.p.) is reported as “dose-dependent decrease”, the “number of entries in the centre of the arena” value ([7]; mCPP higher dose (3 mg/kg) i.p., vs 13±3 vehicle-treated) is reported as 5±2 and the “rats that explored the centre less than 6 times” value ([7]; mCPP, compared to 16% in the control group) is reported as “Seventy-five”.
